From the NIST ThermoML archive (doi:10.1016/j.tca.2010.05.016)
± gives the expanded uncertainty stated by the source.

Experiment: mn = molality of the nth substance listed, in mol/kg
Settings: 101 kPa, Liquid; for speed of sound: Vibrating Tube; for mass density: Vibrating tube method

NCC(=O)NCC(=O)NCC(=O)O [glycylglycylglycine] + O
Settings | mass density, 288.15 K [kg/m3] | mass density, 293.15 K [kg/m3] | mass density, 298.15 K [kg/m3] | mass density, 303.15 K [kg/m3] | mass density, 308.15 K [kg/m3] | speed of sound, 288.15 K [m/s] | speed of sound, 293.15 K [m/s] | speed of sound, 298.15 K [m/s] | speed of sound, 303.15 K [m/s] | speed of sound, 308.15 K [m/s]
m1 = 0.03587 | 1001.94 ± 0.042 | 1001 ± 0.041 | 999.808 ± 0.041 | 998.381 ± 0.042 | 996.783 ± 0.043 | 1470.6 ± 3.3 | 1486.7 ± 3.3 | 1500.8 ± 3.3 | 1512.9 ± 3.3 | 1523.3 ± 3.3
m1 = 0.04684 | 1002.79 ± 0.042 | 1001.85 ± 0.042 | 1000.64 ± 0.041 | 999.208 ± 0.042 | 997.565 ± 0.042 | 1471.6 ± 3.3 | 1487.8 ± 3.3 | 1501.8 ± 3.3 | 1514 ± 3.3 | 1524.3 ± 3.3
m1 = 0.05855 | 1003.69 ± 0.043 | 1002.74 ± 0.043 | 1001.52 ± 0.042 | 1000.08 ± 0.042 | 998.435 ± 0.042 | 1473 ± 3.3 | 1489 ± 3.3 | 1503 ± 3.3 | 1515.1 ± 3.3 | 1525.4 ± 3.3
m1 = 0.06301 | 1004.03 ± 0.043 | 1003.07 ± 0.043 | 1001.86 ± 0.042 | 1000.41 ± 0.042 | 998.76 ± 0.042 | 1473.4 ± 3.3 | 1489.4 ± 3.3 | 1503.4 ± 3.3 | 1515.5 ± 3.3 | 1525.8 ± 3.3
m1 = 0.07743 | 1005.13 ± 0.044 | 1004.16 ± 0.044 | 1002.93 ± 0.044 | 1001.54 ± 0.043 | 999.825 ± 0.042 | 1475 ± 3.3 | 1490.8 ± 3.3 | 1504.8 ± 3.3 | 1516.8 ± 3.3 | 1527.3 ± 3.3
m1 = 0.09073 | 1006.13 ± 0.046 | 1005.15 ± 0.045 | 1003.92 ± 0.045 | 1002.46 ± 0.044 | 1000.79 ± 0.043 | 1476.5 ± 3.3 | 1492.6 ± 3.3 | 1506 ± 3.3 | 1518.4 ± 3.3 | 1528.5 ± 3.3
m1 = 0.1016 | 1006.95 ± 0.046 | 1005.96 ± 0.046 | 1004.73 ± 0.045 | 1003.26 ± 0.045 | 1001.58 ± 0.044 | 1477.7 ± 3.3 | 1493.4 ± 3.3 | 1507.3 ± 3.3 | 1519.3 ± 3.3 | 1529.5 ± 3.3
